Data: patent US9814233B2, “Composition comprising a pesticide, a surfactant and an alkoxylate of 2-propyheptylamine” (BASF SE, priority 2011, dated 2017)

Legend:
[1] = test system: winter wheat (cultivar Cubus); experiment: Greenhouse test of herbicidal activity of glyphosate spray mixtures on winter wheat; type: in vivo; details: after 21 days
Description: (§1) For the greenhouse tests, winter wheat (cultivar Cubus) and soybean (cultivar Oxford) were sown or potted in loamy sandy soil to a depth of 1-2 cm. When the plants had reached a growth height of 10 to 25 cm (i.e., around 10 to 21 days after sowing), the spray mixtures were applied to the plants in a spraying cabin.
(§2) A concentrated formulation comprising glyphosate isopropylammonium in solution in water comprising the surfactants stated and amine alkoxylate A from Example 1 was diluted with deionized water and applied at a water application rate of 375 l/ha (140 g or 280 g of glyphosate/ha). The temperatures in the experimental period were between 18-35° C. During this time, the experimental plants received optimum watering, with nutrients being supplied via the water used for watering.
(§3) The herbicidal activity was evaluated by awarding scores to the treated plants (four each time) in comparison to the untreated control plants. The evaluation scale ranges from 0% to 100% activity. 100% activity means the complete death at least of those parts of the plant that are above ground.

[2] = test system: soybean (cultivar Oxford); experiment: Greenhouse test of herbicidal activity of glyphosate spray mixtures on soybean; type: in vivo; details: after 21 days
Description: as §1, §2, §3

[3] = 140 g/ha glyphosate, without amine alkoxylate/surfactant
[4] = 280 g/ha glyphosate, without amine alkoxylate/surfactant
[5] = 140 g/ha glyphosate, amount 300 g/ha
[6] = 280 g/ha glyphosate, amount 300 g/ha

Row | Molecule | Winter wheat efficacy [1, 3] [%] | Winter wheat efficacy [1, 4] [%] | Soybean efficacy [2, 3] [%] | Soybean efficacy [2, 4] [%] | Winter wheat efficacy [1, 5] [%] | Winter wheat efficacy [1, 6] [%] | Soybean efficacy [2, 5] [%] | Soybean efficacy [2, 6] [%]
1 | CC(C)N.O=C(O)CNCP(=O)(O)O [Without, glyphosate isopropylammonium] | 53 | 68 | 10 | 10 |  |  |  | 
2 | C10-13-alkylbenzenesulfonate, free acid [Surfactant A] |  |  |  |  | 84 | 90 | 64 | 71
